Source: publication PMC9862759 (Viruses, 2023)
“And” between values parts separate entries of the source, which are not always exact repeats. Identical values can stand only once. Like-named read-outs stand apart in the source and are kept apart here.

How the values were obtained:
HEK-293T-ACE2^h cells = test: MTT cytotoxicity assay on host cells (4 h); format: cell-based, human; conditions: MTT, 4 h
LO2 cells = test: MTT cytotoxicity on human normal cell line LO2 (24 h); format: cell-based; conditions: Homo sapiens, L02, 24 h, read-out: IC50 Values of Human Normal Cell Lines, LO2
Beas-2B cells = test: MTT cytotoxicity on human normal cell line Beas-2B (24 h); format: cell-based; conditions: Homo sapiens, BEAS-2B, 24 h, read-out: IC50 Values of Human Normal Cell Lines, Beas-2B
SARS-CoV-2 pseudovirus [1] = conditions: for IC50: read-out: IC50 (inhibition of pseudovirus entry into host cells)
SARS-CoV-2 pseudovirus [2] = test: microbe, parasite or virus in culture; conditions: Severe acute respiratory syndrome-related coronavirus, read-out: IC50 (inhibition of pseudovirus entry into host cells)
HEK 293 cells = test: MTT cytotoxicity on human normal cell line HEK 293 (24 h); format: cell-based; conditions: Homo sapiens, HEK293, 24 h, read-out: IC50 Values of Human Normal Cell Lines, HEK 293

SMILES	CC0 (maximum nontoxic concentration) (HEK-293T-ACE2^h cells) [µM]	TC50 (concentration reducing cell viability by 50%) (HEK-293T-ACE2^h cells)	IC50 (LO2 cells) [µM]	IC50 (Beas-2B cells) [µM]	SI (ratio of TC50 to IC50) (SARS-CoV-2 pseudovirus [1])	IC50 (SARS-CoV-2 pseudovirus [2]) [µM]	IC50 (HEK 293 cells) [µM]	IC50 (SARS-CoV-2 pseudovirus [1]) [µM]
Oc1cc(O)c2c(c1)OC(c1ccc(O)c(O)c1)C(O)C2 (racemic) [compound 21, (±)-Catechin]	300	>500 µM	> 500	> 500	>3.19	157 ± 12	> 500	
COc1ccc2cc1Oc1ccc(cc1)C[C@H]1c3c(cc4c(c3Oc3cc5c(cc3OC)CCN(C)[C@@H]5C2)OCO4)CCN1C [Cepharanthine, reference compound]	6.25	11.54 µM and 11.54 ± 1.39 µM	16.06 ± 0.13	26.1 ± 1.08	8.88	1.3 ± 0.18	24.3 ± 0.22	
O=c1cc(-c2ccccc2)oc2cc(O)cc(O)c12 [compound 1, Chrysin]	100	168.50 ± 12.06 µM			<1.69	> 100		
O=c1cc(-c2ccc(O)cc2)oc2cc(O)cc(O)c12 [compound 2, Apigenin]	50	90.88 ± 3.13 µM			<1.82	> 50		
O=c1cc(-c2ccc(O)c(O)c2)oc2cc(O)cc(O)c12 [compound 3, Luteolin]	200	>300 µM	183 ± 10.3	> 300			> 300	
O=c1cc(-c2ccc(O)cc2)oc2c([C@@H]3O[C@H](CO)[C@@H](O)[C@H](O)[C@H]3O)c(O)cc(O)c12 [compound 4, Vitexin]	300	>500 µM				> 300		
O=c1cc(-c2ccc(O)c(O)c2)oc2c([C@@H]3O[C@H](CO)[C@@H](O)[C@H](O)[C@H]3O)c(O)cc(O)c12 [compound 5, Orientin]	300	>500 µM	> 500	> 500	>7.85	63.7 ± 9.61	> 500	
CC1OC(OC2C(c3c(O)cc(O)c4c(=O)cc(-c5ccc(O)cc5)oc34)OC(CO)C(O)C2O)C(O)C(O)C1O (centres unmarked) [compound 6, Vitexin-2″-O-rhamnoside]	300	>500 µM				> 300		
O=c1cc(-c2ccccc2)oc2cc(O)c(O)c(O)c12 [compound 7, Baicalein]	200	>500 µM	> 500	494 ± 9.64	>9.80	51 ± 6.48	> 500	
COc1c(O)cc2oc(-c3ccccc3)cc(=O)c2c1O [compound 8, Oroxylin A]	100	>300 µM	> 300	> 300	>8.08	< 50	> 300	37.1 ± 2.58
O=c1cc(-c2ccc(O)cc2)oc2cc(O)c(O)c(O)c12 [compound 9, Scutellarein]	200	>300 µM	> 300	> 300	>10.25	< 50	> 300	29.3 ± 0.74
O=c1cc(-c2ccccc2)oc2cc(O[C@@H]3O[C@H](CO)[C@@H](O)[C@H](O)[C@H]3O)c(O)c(O)c12 [compound 10, Oroxin A]	300	>300 µM	> 300	> 300	>3.55	84.6 ± 10.8	258 ± 10.6	
O=c1cc(-c2ccccc2)oc2cc(O[C@@H]3O[C@H](CO[C@@H]4O[C@H](CO)[C@@H](O)[C@H](O)[C@H]4O)[C@@H](O)[C@H](O)[C@H]3O)c(O)c(O)c12 [compound 11, Oroxin B]	300	>300 µM	> 300	> 300	>2.33	129 ± 19	> 300	
O=C(O)[C@H]1O[C@@H](Oc2cc3oc(-c4ccccc4)cc(=O)c3c(O)c2O)[C@H](O)[C@@H](O)[C@@H]1O [compound 12, Baicalin]	300	>500 µM	> 500	> 500	>4.56	110 ± 11	> 500	
COc1c(O[C@@H]2O[C@H](C(=O)O)[C@@H](O)[C@H](O)[C@H]2O)cc(O)c2c(=O)cc(-c3ccccc3)oc12 [compound 13, Wogonoside]	300	>500 µM	> 500	> 500	>4.20	119 ± 21	> 500	
O=c1c(O[C@@H]2O[C@H](CO)[C@@H](O)[C@H](O)[C@H]2O)c(-c2ccc(O)cc2)oc2cc(O)cc(O)c12 [compound 17, Astragalin]	300	>500 µM	> 500	> 500	>3.76	133 ± 16.2	> 500	
O=c1c(O[C@@H]2O[C@H](CO)[C@@H](O)[C@H](O)[C@H]2O)c(-c2ccc(O)c(O)c2)oc2cc(O)cc(O)c12 [compound 18, Isoquercitrin]	300	>500 µM	> 500	> 500	>5.30	94.4 ± 1.59	> 500	
O=c1c(O[C@@H]2O[C@H](CO)[C@H](O)[C@H](O)[C@H]2O)c(-c2ccc(O)c(O)c2)oc2cc(O)cc(O)c12 [compound 19, Hyperoside]	300	>500 µM	> 500	> 500	>6.02	83.1 ± 10.7	> 500	
C[C@@H]1O[C@@H](OC[C@H]2O[C@@H](Oc3c(-c4ccc(O)c(O)c4)oc4cc(O)cc(O)c4c3=O)[C@H](O)[C@@H](O)[C@@H]2O)[C@H](O)[C@H](O)[C@H]1O [compound 20, Rutin]	300	>500 µM	> 500	> 500	>3.40	147 ± 21.1	> 500	
Oc1cc(O)c2c(c1)O[C@H](c1ccc(O)c(O)c1)[C@H](O)C2 [compound 22, (-)-Epicatechin]	300	>500 µM	> 500	> 500	>3.43	146 ± 20.8	> 500	
Oc1cc(O)c2c(c1)O[C@H](c1cc(O)c(O)c(O)c1)[C@H](O)C2 [compound 23, (-)-Epigallocatechin]	200	453.10 ± 4.55 µM	483.3 ± 1.52	369 ± 1.7	6.11	74.2 ± 10.7	> 500	
O=C(O[C@@H]1Cc2c(O)cc(O)cc2O[C@@H]1c1ccc(O)c(O)c1)c1cc(O)c(O)c(O)c1 [compound 24, (-)-Epicatechin gallate]	300	>500 µM	> 500	> 500	>8.51	58.8 ± 3.25	> 500	
O=C(O[C@@H]1Cc2c(O)cc(O)cc2O[C@@H]1c1cc(O)c(O)c(O)c1)c1cc(O)c(O)c(O)c1 [compound 25, (-)-Epigallocatechin gallate]	300	>500 µM	430 ± 6.98	> 500		< 50	> 500	31.3 ± 7.4
O=C(O[C@@H]1Cc2c(O)cc(O)cc2O[C@H]1c1cc(O)c(O)c(O)c1)c1cc(O)c(O)c(O)c1 [compound 26, (-)-Gallocatechin gallate]	300	>500 µM	433 ± 8.96	> 500	>11.52	< 50	> 500	43.4 ± 2.93
Oc1cc(O)c2c(c1)O[C@H](c1ccc(O)c(O)c1)[C@H](O)[C@H]2c1c(O)cc(O)c2c1O[C@H](c1ccc(O)c(O)c1)[C@@H](O)C2 [compound 27, Procyanidin B-1]	300	>500 µM				> 300		
Oc1cc(O)c2c(c1)O[C@H](c1ccc(O)c(O)c1)[C@H](O)[C@H]2c1c(O)cc(O)c2c1O[C@H](c1ccc(O)c(O)c1)[C@H](O)C2 [compound 28, Procyanidin B-2]	300	>500 µM				> 300		
Oc1cc(O)c2c(c1)O[C@H](c1ccc(O)c(O)c1)[C@@H](O)[C@@H]2c1c(O)cc(O)c2c1O[C@H](c1ccc(O)c(O)c1)[C@@H](O)C2 [compound 29, Procyanidin B-3]	300	>500 µM				> 300		
